How the values were obtained:
[1] = Blood pressure and heart rate responses to intravenous injection in anesthetized rats; format: in vivo, pentobarbital-anesthetized normotensive Wistar rats
Method: Measurement of blood pressure and heart rate
The method reported in Gen.
vasomolol (0.5, 1.0, 3.0 mg/kg)

[2] = test system: phenylephrine-induced pressor response; assay: Inhibition of phenylephrine-induced pressor response during intravenous infusion; format: in vivo, reserpinized rats; details: infusion 300 μg/kg/min; phenylephrine 10 μg/kg i.v.; data not shown
Method: The method reported in Gen. Pharmacol. 24, 1425, 1993 (by inventor group),
phenylephrine (10 μg/klg, i.v.)

[3] = test system: isolated rat thoracic aorta; assay: Inhibition of phenylephrine and high K+ induced contractions of isolated rat aorta (vasodilatation effect)
Method: Male rats weighing 200-250 g were sacrificed by a blow on the head and the thoracic aorta was removed and cleaned of all loosely adhering tissue. The thoracic aorta was cut from an area close to the aortic arch, immediately placed in a physiological solution, and trimmed to 2-4 mm in length as described in Gen. Pharmacol. 24, 1425, 1993 (by inventor group) The rings were then mounted with a tension of 1.0 g between parallel hooks in a 10 ml organ bath containing a physiological solution(mM):NaCl 112; KCl5.0; NaHCO3 25; KH2 PO4 1.0; CaCl2 1.25; MgSO4 1.2; and glucose 11.5]. The bath was maintained at 37° C. and aerated with a mixture of 95% O2 and 5% CO2. The tension of the aortic rings were recorded isometrically by means of a force displacement transducer (UGO, Model 7004, Italy) connected to an amplifier (COULBOURN, Model S72-25, U.S.A.). Before the start of the experiments, all preparations were allowed to equilibrate for 1.0 hr in the physiologic solution.
Effects of vasomolol on (A) phenylephrine(10^-5 M) and (B) high K^+ (75 mM) induced contraction in rat thoracic aorta.

[4] = molecular target: T1, β1-adrenoceptor (right atrium) (Cavia porcellus, UniProt H0W3H1); assay: β-adrenoceptor antagonism in isolated spontaneously-beating right atria (isoproterenol chronotropic response); set-up: species or system guinea-pig
T1 construct: Spontaneously-beating right atria were removed from the hearts and mounted in a 10 ml organ bath; from tissue; host or cells: isolated guinea-pig (Hartley) right and left atria
Method: Guinea-pigs (Hartley) of either sex weighing between 350 and 500 g were sacrificed by a blow on the head. Their hearts and trachea were quickly excised and excess tissue was removed. […] The atrial strip was prestretched to a baseline tension of 0.2 g. […] The atria were then allowed a 30-60 min washout period to estabilize, after which time various concentrations of the test compound were incubated with the atrium 30 min before the cumulative concentrations of the (-) isoproterenol ([…]) was added. All responses to (-) isoproterenol were calculated as a percentage of the maximum control response to (-) isoproterenol.
(§1) The pA2 values and slope values were calculated from individual Schild plots by regression analysis. The β1 /β2 -selectivity ratio was obtained from the antilogarithm of the difference between the mean pA2 values obtained from right atrium and trachea.
(§2) Mean cumulative concentration-response curves are shown for the positive chronotropic responses to (-) isoproterenol in spontaneously-beating guinea-pig right atria, positive inotropic responses to (-) isoproterenol in electrically driven guinea-pig left atria, and relaxant effects to (-) isoproterenol in guinea-pig spontaneous tone tracheal strips in the absence (.smallcircle.) or presence of 0.01 (.circle-solid.), 0.1, 1 (.tangle-soliddn.) or 10 (.diamond.) μM of vasomolol.

[5] = molecular target: T2, β1-adrenoceptor (left atrium) (Cavia porcellus, UniProt H0W3H1); assay: β-adrenoceptor antagonism in isolated electrically driven left atria (isoproterenol inotropic response); set-up: species or system guinea-pig
T2 construct: Spontaneously-beating right atria were removed from the hearts and mounted in a 10 ml organ bath; from tissue; host or cells: isolated guinea-pig (Hartley) right and left atria
Method: In the isolated left atria, quiescent left atria were dissected free of connective tissue and mounted in organ chambers under a resting tension of 0.5 g. […] Cumulative concentration-response curves to the positive inotropic effects of (-) isoproterenol were obtained in the absence and presence of various concentrations of a test compound. An incubation time of 30 min was allowed for the test compound. Data were calculated as a percentage of the increase in force induced by (-) isoproterenol.
as §1, §2

[6] = molecular target: T3, β2-adrenoceptor (trachea) (Cavia porcellus, UniProt Q8K4Z4); assay: β-adrenoceptor antagonism in isolated tracheal strips (isoproterenol-induced relaxation); set-up: species or system guinea-pig
T3 construct: Guinea-pig trachea were cleaned of extraneous connective tissue and cut into spiral strips; from tissue; host or cells: isolated guinea-pig tracheal spiral strips
Method: Guinea-pig trachea were cleaned of extraneous connective tissue and cut into spiral strips as described in Gen. […] This spiral strip was cut into two equal segments and both were suspended in organ baths filled with 20 ml of Kreb's solution. […] An initial basal tension of 2 g was applied to each tracheal strip and the tissue was allowed to gain tone spontaneously until a steady level was reached (60 min).
as §1, §2

β1/β2-adrenoceptors = assay: β1/β2-selectivity from mean pA2 values of right atria and trachea; set-up: species or system guinea-pig
Method: as §1, with “The β1 /β2 -selectivity ratio was obtained from the antilogarithm of the difference between the mean pA2 values obtained from the right atria and trachea as described in J. Pharm. […] The pA2” for “The pA2”

[7] = test system: right atria and left atrial strips; assay: Intrinsic sympathomimetic activity in isolated right atria and left atrial strips; set-up: species or system reserpinized guinea-pigs; details: for intrinsic sympathomimetic activity: effect on heart rate and contractility: cumulative concentrations, in words
Method: Animals were pretreated with reserpine (10 mg/kg, i.p.) 24 hr prior to the experiment described in Naunyn-Schmiedeberg's Arch. […] All preparations including isolated right atria and left atria strips were studied.
All measurements are expressed as mean percentages of the control frequency or force in the same preparation.

[8] = 0.5 mg/kg i.v., mean ± SEM (n = 8)
[9] = 1.0 mg/kg i.v., mean ± SEM (n = 8)
[10] = 3.0 mg/kg i.v., mean ± SEM (n = 8)
[11] = mean ± SEM, six to eight experiments, 30 min

T3 sequence (Q8K4Z4 whole entry): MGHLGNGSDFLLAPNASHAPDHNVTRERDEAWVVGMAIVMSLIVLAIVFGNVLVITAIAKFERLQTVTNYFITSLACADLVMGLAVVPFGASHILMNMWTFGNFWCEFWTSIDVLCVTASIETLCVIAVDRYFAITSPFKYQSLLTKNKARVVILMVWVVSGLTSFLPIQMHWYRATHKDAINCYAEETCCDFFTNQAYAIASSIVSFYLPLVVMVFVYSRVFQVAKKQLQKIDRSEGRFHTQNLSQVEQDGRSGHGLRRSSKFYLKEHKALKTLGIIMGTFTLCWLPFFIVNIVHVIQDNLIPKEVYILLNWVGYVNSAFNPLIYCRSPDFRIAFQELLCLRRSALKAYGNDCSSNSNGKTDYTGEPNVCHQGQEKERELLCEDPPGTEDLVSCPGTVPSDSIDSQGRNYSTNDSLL
T1 sequence (H0W3H1 1-470): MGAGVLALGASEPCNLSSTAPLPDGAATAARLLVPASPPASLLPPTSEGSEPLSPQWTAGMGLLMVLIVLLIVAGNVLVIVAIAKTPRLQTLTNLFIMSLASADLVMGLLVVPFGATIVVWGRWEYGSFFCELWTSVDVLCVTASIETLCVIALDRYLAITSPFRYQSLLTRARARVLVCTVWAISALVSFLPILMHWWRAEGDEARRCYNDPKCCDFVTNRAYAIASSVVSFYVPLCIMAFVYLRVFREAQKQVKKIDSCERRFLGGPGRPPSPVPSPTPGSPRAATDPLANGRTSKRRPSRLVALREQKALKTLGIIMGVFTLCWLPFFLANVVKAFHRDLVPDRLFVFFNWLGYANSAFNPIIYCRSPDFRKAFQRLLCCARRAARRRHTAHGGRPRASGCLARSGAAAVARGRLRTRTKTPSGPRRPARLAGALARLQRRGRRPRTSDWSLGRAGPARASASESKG
T2 sequence (H0W3H1 1-470): as above

- pA2 value, β1, right atrium [4, 11]: 7.41 ± 0.05
- Schild slope, right atrium ([4]; regression of Schild plot): 0.90 ± 0.04
- pA2 value, β1, left atrium [5, 11]: 7.44 ± 0.03
- Schild slope, left atrium ([5]; regression of Schild plot): 0.89 ± 0.02
- relative β2-adrenoceptor blocking potency ([6]; in words): less potent than propranolol
- pA2 value, β2, trachea ([6]; mean ± SEM, six to eight experiments, 60 min): 5.81 ± 0.11
- antagonism of (-) isoproterenol-induced relaxation ([6]; printed 5×10^8 -10^6 M, tracheal strips): competitively antagonized
- Schild slope, trachea ([6]; regression of Schild plot): 0.81 ± 0.06
Structure (SMILES): CCOC(=O)c1ccc(OCC(O)CNC(C)(C)C)c(OC)c1 (centres unmarked) [Vasomolol]
- BP change [1, 8]: -4.5 ± 1.4 mm Hg
- HR change [1, 8]: -20.0 ± 2.3 bpm
- bradycardia duration [1, 8]: 3.5 ± 0.7 min
- BP change [1, 9]: -6.5 ± 1.9 mm Hg
- HR change [1, 9]: -34.5 ± 2.8 bpm
- bradycardia duration [1, 9]: 7.2 ± 0.8 min
- BP change [1, 10]: -10.8 ± 1.2 mm Hg
- HR change [1, 10]: -50.0 ± 3.4 bpm
- bradycardia duration [1, 10]: 8.0 ± 1.2 min
- bradycardia duration ([1]; i.v. injection): less than 10 min
- blood pressure and heart rate effect ([1]; i.v. injection 0.5, 1.0, 3.0 mg/kg, in words): produced a hypotensive action and a decrease in heart rate
- inhibition of phenylephrine-induced pressor response [2]: could not significantly inhibit
- inhibition of high K+ induced contraction ([3]; K+ 75 mM, vasomolol printed 10^6 -10^5 M): significantly inhibited
- relaxation sensitivity, high K+ versus phenylephrine ([3]; in words): more sensitive in high K^+ than in phenylephrine-contracted aorta preparations
- inhibition of phenylephrine-induced contraction ([3]; phenylephrine printed 10^5 M, vasomolol printed 10^6 -10^5 M): significantly inhibited
- antagonism of isoproterenol-induced positive chronotropic actions ([4]; 5×10^-8 -10^-6 M, right atrial strips): caused a dose-dependent parallel shift to the right of the isoproterenol concentration-response curves
- antagonism of isoproterenol-induced positive inotropic responses ([5]; electrically driven left atrial strips): produced dose-dependent rightward shifts of the cumulative concentration-response curves to isoproterenol
- relative β-adrenoceptor blocking potency ([5]; guinea-pig atria, in words): more potent than atenolol, slightly more potent than metoprolol, and was less potent than propranolol
- β1/β2 selectivity in words (β1/β2-adrenoceptors): selective for β1-adrenoceptors
- β1/β2-selectivity ratio (β1/β2-adrenoceptors; antilogarithm of difference between mean pA2 of right atrium and trachea): 39.8
- potency on right atria versus trachea (β1/β2-adrenoceptors; from mean pA2 values): 39.8 times
- intrinsic sympathomimetic activity: effect on heart rate and contractility [7]: did not induce an increase in the heart rate or contractility
- intrinsic sympathomimetic activity: effect on heart rate and contractility ([7]; listed as vasomolol): Lack of intrinsic sympathomimetic activity
- concentration causing negative inotropic and chronotropic effects ([7]; right atria rate and left atria tension): ≥ 10^-5 M
